From ChEMBL document CHEMBL1629698, “Identification of the novel dfrK-carrying transposon Tn559 in a porcine methicillin-susceptible Staphylococcus aureus ST398 strain” (2010)
≈ marks a conversion by molar mass, not a printed value.

What follows are compounds tested on Staphylococcus aureus (assay: Antimicrobial activity against Staphylococcus aureus 2171 by broth microdilution method).
Type: functional
Work on `CC1(C)S[C@@H]2[C@H](NC(=O)[C@H](N)c3ccccc3)C(=O)N2[C@H]1C(=O)O` [AMPICILLIN] yielded an MIC of 4 µg/mL (≈ 11.4 µM).
`CCC[C@@H]1C[C@@H](C(=O)N[C@@H]([C@H]2O[C@H](SC)[C@H](O)[C@@H](O)[C@H]2O)[C@H](C)Cl)N(C)C1` [CLINDAMYCIN] was tested, and the MIC was ≥ 128 µg/mL.
Work on `CCN1CCN(c2cc3c(cc2F)c(=O)c(C(=O)O)cn3C2CC2)CC1` [ENROFLOXACIN] yielded an MIC of 8 µg/mL (≈ 22.3 µM).
With `CC[C@H]1OC(=O)[C@H](C)[C@@H](O[C@H]2C[C@@](C)(OC)[C@@H](O)[C@H](C)O2)[C@H](C)[C@@H](O[C@@H]2O[C@H](C)C[C@H](N(C)C)[C@H]2O)[C@](C)(O)C[C@@H](C)C(=O)[C@H](C)[C@@H](O)[C@]1(C)O` [ERYTHROMYCIN] the MIC was ≥ 64 µg/mL.
In the case of `Cc1onc(-c2ccccc2)c1C(=O)N[C@@H]1C(=O)N2[C@@H]1SC(C)(C)[C@@H]2C(=O)O` [OXACILLIN], the MIC is reported as 0.5 µg/mL (≈ 1.25 µM).
`CC1(C)S[C@@H]2[C@H](NC(=O)Cc3ccccc3)C(=O)N2[C@H]1C(=O)O` [PENICILLIN G] was tested, and the MIC was 8 µg/mL (≈ 23.9 µM).
`CN(C)[C@@H]1C(O)=C(C(N)=O)C(=O)[C@@]2(O)C(O)=C3C(=O)c4c(O)cccc4[C@@](C)(O)[C@H]3C[C@@H]12` [TETRACYCLINE] was tested, and the MIC was 32 µg/mL (≈ 72 µM).
With `COc1cc(Cc2cnc(N)nc2N)cc(OC)c1OC` [TRIMETHOPRIM] the MIC was ≥ 128 µg/mL.
